Experimental data as given in article PMC13274462, “Growth of Corynebacterium glutamicum on 5-oxo-L-proline (pyroglutamate) as a carbon and nitrogen source requires the PxpR-controlled pxpTABC genes” (Applied and Environmental Microbiology, 2026).

Target: T1, PxpR (Corynebacterium glutamicum, UniProt Q8NRP0)
T1 construct: gene Cgl1008; PxpR protein with a C-terminal Strep-tag-II (PxpR-Strep)
T1 sequence (Q8NRP0 11-227): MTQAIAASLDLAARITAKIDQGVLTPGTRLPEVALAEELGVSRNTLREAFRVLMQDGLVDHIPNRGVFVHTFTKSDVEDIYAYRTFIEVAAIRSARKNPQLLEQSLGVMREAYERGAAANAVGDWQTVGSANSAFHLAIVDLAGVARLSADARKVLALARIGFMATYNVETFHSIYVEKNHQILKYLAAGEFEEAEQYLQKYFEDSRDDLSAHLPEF
Assay: isothermal titration calorimetry (ITC) with purified PxpR-Strep, […]°C, pH […]
Assay type: binding

Kd: 726 ± 23 nM
SMILES: O=C1CC[C@@H](C(=O)O)N1 [5-OP, 5-oxo-L-proline]
